Test results as given in patent US12391674B2, “Heterocyclic compounds for the treatment of epilepsy” (OTSUKA PHARMACEUTICAL CO., LTD., priority 2018, dated 2025).

Tests used:
ICR mice = assay: Rotarod test (motor coordination); assay type: in vivo, mouse; settings: oral, rotarod 1 hour after administration
Method in brief: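 Motor coordination was assessed in male ICR mice (Japan SLC, Inc., 5-6 weeks old, 8 per group). Animals were first trained to stay for 2 minutes on a rotarod turning at a fixed 15 rpm. One hour after oral dosing, each mouse was placed on a rod accelerating from 4 rpm to 40 rpm over 5 minutes, and latency to fall was recorded for up to 200 seconds. Latencies were expressed relative to the mean of the solvent-treated group.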

DBA/2 mice = assay: Audiogenic seizure model; assay type: in vivo; settings: Mus musculus, DBA/2 mice, oral, auditory stimulation 1 hour after administration, read-out: Seizure suppression
Method in brief: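 Male and female DBA/2 mice (3 weeks old, 8/group) dosed orally at 30 mg/kg in 5% gum arabic; 1 h later exposed to 12.6 kHz, 100-110 dB tone for 1 min or until tonic seizure. Maximum seizure score (0–4) recorded; suppression rate graded A (≥90%), B (70–<90%), C (50–<70%).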

Row | Structure (SMILES) | Motor dysfunction (ICR mice; dose 30 mg/kg) | inhibition in vivo at 30 mg/kg (DBA/2 mice) [%] | Motor dysfunction (ICR mice; dose 5 mg/kg) | inhibition in vivo at 5 mg/kg (DBA/2 mice) [%] | also measured
1 | Nc1nc2ccc(-c3cnc(Oc4ccccc4)nc3)cn2n1 [Example 298] |  |  |  |  | Motor dysfunction (ICR mice; dose 1 mg/kg): A (a coordination disorder of 25% or less); inhibition in vivo at 1 mg/kg (DBA/2 mice; dose 1 mg/kg): > 90%
2 | N#Cc1cccc(-c2cnc(Oc3ccccc3)nc2)n1 [Example 350] |  |  |  |  | Motor dysfunction (ICR mice; dose 10 mg/kg): A (a coordination disorder of 25% or less); inhibition in vivo at 10 mg/kg (DBA/2 mice): > 90%
3 | c1ccc(Oc2ncc(-c3cnc4cc[nH]c4c3)cn2)cc1 [Example 137, 6-(2-Phenoxypyrimidin-5-Yl)-1H-Pyrrolo[3,2-b]Pyridine] | A (a coordination disorder of 25% or less) | > 90 |  |  | 
4 | O=C1CCN(c2ccc(Cc3cccc(F)c3)cc2)C(=O)N1 [Example 305, 1-(4-(3-Fluorobenzyl)Phenyl)Dihydropyrimidine-2,4 (1H,3H)-Dione] | A (a coordination disorder of 25% or less) | > 90 |  |  | 
5 | O=C1C[C@H](O)CCN1c1cnc(Oc2ccccc2)nc1 [Example 235] | A (a coordination disorder of 25% or less) | > 90 |  |  | 
6 | Cc1cccc(Oc2ncc(-c3ccc4nccn4c3)cn2)c1 [Example 161] |  |  | A (a coordination disorder of 25% or less) | > 90 | 
7 | FC(F)(F)c1ccc(-c2cnc(Oc3ccccc3)nc2)nn1 [Example 38, 3-(2-Phenoxypyrimidin-5-Yl)-6-(Trifluoromethyl)Pyridazine] |  |  |  |  | Motor dysfunction (ICR mice; dose 10 mg/kg): A (a coordination disorder of 25% or less); inhibition in vivo at 10 mg/kg (DBA/2 mice): > 90%
8 | FC(F)(F)c1cccc(Oc2ncc(-c3ccc4nccn4c3)cn2)c1 [Example 170] |  |  | A (a coordination disorder of 25% or less) | > 90 | 
9 | OC1CCN(c2cnc(Oc3ccccc3)nc2)CC1 [Example 226, 1-(2-Phenoxypyrimidin-5-Yl) Piperidin-4-Ol] |  |  | B (a coordination disorder of more than 25% and 50% or less) | > 90 | 
10 | FC(F)(F)c1ncc(-c2cnc(Oc3ccccc3)nc2)cn1 [Example 296] | A (a coordination disorder of 25% or less) | > 90 |  |  | 
11 | Nc1ccc(-c2cnc(Oc3ccccc3)nc2)cc1 [Example 239, 4-(2-Phenoxypyrimidin-5-Yl) Aniline] | A (a coordination disorder of 25% or less) | > 90 |  |  | 
12 | O=C1CCN(c2ccc(Oc3ccccc3)nn2)C(=O)N1 [Example 347, 1-(6-Phenoxypyridazin-3-Yl)Dihydropyrimidine-2,4 (1H,3H)-Dione] | A (a coordination disorder of 25% or less) | > 90 |  |  | 
13 | N#Cc1cccc(-c2cnc(Oc3ccccc3)nc2)c1 [Example 237] | A (a coordination disorder of 25% or less) | > 90 |  |  | 
14 | O=c1cnc2cc(-c3cnc(Oc4ccccc4)nc3)ccc2[nH]1 [Example 256] |  |  | A (a coordination disorder of 25% or less) | 70 to 90 | 
15 | c1ccc(Oc2ncc(-c3ccn4nncc4c3)cn2)cc1 [Example 184] |  |  | A (a coordination disorder of 25% or less) | > 90 | 
16 | Cc1cn2cc(-c3cnc(Oc4ccccc4)nc3)ccc2n1 [Example 177] |  |  | A (a coordination disorder of 25% or less) | 70 to 90 | 
